Experimental data taken from US20230321023A1, “APPLICATION OF REGULATION OF EYE SCLERA LIPID METABOLISM TO INHIBIT MYOPIA” (Wenzhou Medical University, priority 2020, published 2023).

Experiments:
FD myopia [1] = experiment: FD myopia in guinea pigs, peribulbar injection of DHA, EPA or atropine; format: in vivo, guinea pig; settings: 2 weeks; for reduction of myopia progression vs Vehicle group: high dose 3.0 μg/day
Description: (§1) The test animals were British tricolored short-haired guinea pigs aged 3 weeks. The animals were subjected to monocular form deprivation (FD) by a mask method and were randomly divided into 6 groups, which were treated by peribulbar injection with the following different substances: (1) ethanol solvent group (Vehicle); (2) low-dose DHA group (1.0 μg); (3) high-dose DHA group (3.0 μg): (4) low-dose EPA group (1.0 μg); (5) high-dose EPA group (3.0 μg); and (6) 0.1% atropine group.
The measurement methods of refraction, vitreous chamber depth and eye axis length were the same as those in Example 2.

[2] = Safety test, peribulbar injection of DHA; format: in vivo, guinea pig; settings: peribulbar DHA alone, up to 3 μg/day, vs Vehicle control
Description: as §1

[3] = Allergy study, periocular injection in FD animals; format: in vivo; settings: high-purity DHA 3.0 μg or DHA 3.0 μg+EPA 3.0 μg, 100 μL daily periocular, 2 weeks
Description: Animals were randomly divided into three groups: FD+cod liver oil (commercially available ω-3 polyunsaturated fatty acids) group; FD+high-purity drug group 1 (FD+DHA 3.0 μg); and FD+high-purity drug group 2 (FD+“DHA 3.0 μg+EPA 3.0 μg”), and both high-purity drug groups were at a high dose.
After applying a topical anesthetic (one drop of 0.5% propazocaine hydrochloride, Alcon Laboratories, Inc., Puurs, Belgium), 100 μL of drug was daily administered at the surrounding area of FD eyeballs at 9:00 a.m., continuing for 2 weeks. All injections were completed within 10 seconds under dark red light to minimize any possible impact of red light on induced myopic recovery.

FD myopia [4] = experiment: Optimal treatment scheme: peribulbar DHA/EPA formulations in young guinea pig models with FD myopia; format: in vivo; parameters: Vitreous chamber depth (difference between experimental eye and fellow eye): unit not given here; settings: FD guinea pigs, total mass 3 μg; for Eye axis length (difference between experimental eye and fellow eye): in mm (unit assumed); for Myopia inhibition rate: 1 W vs Veh
From the text: The optimal treatment protocol or scheme applying ω-3 by means by of feeding and peribulbar injection were investigated, respectively, and some critical findings were shown, especially when the eye was subjected to topical administration, unexpected results were obtained by using DHA alone or a composition of DHA and EPA. The basic experimental procedures were as described above.
However, as the content of EPA increases to become the predominant component (i.e., DHA:EPA<1:1), the efficacy of the mixture of DHA and EPA (the total mass of ocular topical administration is 3 μg in each case) is even better than that of DHA alone, EPA alone, or a mixture of DHA and EPA containing DHA as the main component (i.e., DHA:EPA>1:1, for example, […]) and is statistically significant (Table 1 and FIG. 12). It can be seen that the mixture of DHA and EPA that uses EPA as the predominant component or the predominant active ingredient has the optimal inhibition effect of myopia and myopia-related symptoms. Overall, all the treatment protocols in this example are very effective in inhibiting the negative refraction, eye axis elongation, and vitreous cavity depth increase.

| SMILES | reduced myopia rate (positive control) (FD myopia [1]; 0.1% atropine) | reduction of myopia progression vs Vehicle group (FD myopia [1]) | ACD (anterior chamber depth) [2] | LT (lens thickness) [2] | body weight [2] | adverse reactions such as allergies [3] | Refraction (difference between experimental eye and fellow eye) (FD myopia [4]; 0 W) | Vitreous chamber depth (difference between experimental eye and fellow eye) (FD myopia [4]; 0 W) | Eye axis length (difference between experimental eye and fellow eye) (FD myopia [4]; 0 W) | Myopia inhibition rate (FD myopia [4]) | Refraction (difference between experimental eye and fellow eye) (FD myopia [4]; 1 W) | Vitreous chamber depth (difference between experimental eye and fellow eye) (FD myopia [4]; 1 W) | Eye axis length (difference between experimental eye and fellow eye) (FD myopia [4]; 1 W) |
| --- | --- | --- | --- | --- | --- | --- | --- | --- | --- | --- | --- | --- | --- |
| CN1[C@@H]2CC[C@H]1C[C@@H](OC(=O)C(CO)c1ccccc1)C2 (stereo partly drawn) [Atropine, atropine, reference compound] | 35.6% | – | – | – | – | – | – | – | – | – | – | – | – |
| CC/C=C\C/C=C\C/C=C\C/C=C\C/C=C\C/C=C\CCC(=O)O [DHA, docosahexaenoic acid] | – | 35.3% | no significant ocular differences | no significant ocular differences | no significant ocular differences | no adverse reactions such as allergies | −0.23 | 0.00 | −0.01 | 31.8% | −2.95 | 0.06 | 0.06 |
| CC/C=C\C/C=C\C/C=C\C/C=C\C/C=C\CCCC(=O)O [EPA, eicosapentaenoic acid] | – | 29.6% | – | – | – | – | −0.40 | 0.00 | 0.01 | 21.0% | −3.42 | 0.07 | 0.07 |
